Earlier results in US20030198619A1, “Formulation and dosage form for increasing oral bioavailability of hydrophilic macromolecules” (priority 2001, published 2003).
Like-named read-outs stand apart in the source and are kept apart here.

Experiments:
[1] = in vivo

Row | oral bioavailability [1] | elimination half-life in urine (after oral administration) | oral bioavailability (in humans) | elimination half-life (mean value following IV injection) | Compound
1 | about 0.15% |  |  |  | NC(=O)CC[C@@H]1NC(=O)[C@H](Cc2ccccc2)NC(=O)[C@H](Cc2ccc(O)cc2)NC(=O)CCSSC[C@@H](C(=O)N2CCC[C@H]2C(=O)N[C@H](CCCN=C(N)N)C(=O)NCC(N)=O)NC(=O)[C@H](CC(N)=O)NC1=O [dDAVP, Desmopressin]
2 |  | 4.8 h | approximately 3% | 24 h | pentosan polysulfate sodium [PPS]
